Laboratory results from the kinase profiling compilation of Christmann-Franck et al. (2016).

Experiments:
Experiment in all cases: radiometric filter-binding kinase assay, Kinase HotSpot
Conditions in all cases: compound 0.5 µM; ATP 10 µM
CHUK (human) = CHUK (human) (UniProt O15111)
MLTK (human) = MLTK (human) (UniProt Q9NYL2)
CSK (human) = CSK (human) (UniProt P41240)
TAOK3 (human) = TAOK3 (human) (UniProt Q9H2K8)
PRKD1 (human) = PRKD1 (human) (UniProt Q15139)
DYRK3 (human) = DYRK3 (human) (UniProt O43781)
PRKACA (human) = PRKACA (human) (UniProt P17612)
STK11 (human) = STK11 (human) (UniProt Q15831)
CSNK2A1 (human) = CSNK2A1 (human) (UniProt P68400)
CDK6 CCND3 (human) = CDK6 CCND3 (human) (UniProt P30281+Q00534)
CLK3 (human) = CLK3 (human) (UniProt P49761)
ITK (human) = ITK (human) (UniProt Q08881)
CAMKK2 (human) = CAMKK2 (human) (UniProt Q96RR4)
CDK5 CDK5R1 p35 (human) = CDK5 CDK5R1 p35 (human) (UniProt Q00535+Q15078)
ACVR1B (human) = ACVR1B (human) (UniProt P36896)
PKN2 (human) = PKN2 (human) (UniProt Q16513)
SYK (human) = SYK (human) (UniProt P43405)
PTK2B (human) = PTK2B (human) (UniProt Q14289)
GRK5 (human) = GRK5 (human) (UniProt P34947)
LRRK2 (human) = LRRK2 (human) (UniProt Q5S007)
DYRK4 (human) = DYRK4 (human) (UniProt Q9NR20)
RAF1 (human) = RAF1 (human) (UniProt P04049)
SRPK2 (human) = SRPK2 (human) (UniProt P78362)
STK39 (human) = STK39 (human) (UniProt Q9UEW8)
DAPK3 (human) = DAPK3 (human) (UniProt O43293)
DYRK1A (human) = DYRK1A (human) (UniProt Q13627)
FGFR4 (human) = FGFR4 (human) (UniProt P22455)
CSNK1G2 (human) = CSNK1G2 (human) (UniProt P78368)
MARK1 (human) = MARK1 (human) (UniProt Q9P0L2)
PHKG1 (human) = PHKG1 (human) (UniProt Q16816)
HCK (human) = HCK (human) (UniProt P08631)
[1] = molecular target: JAK1 JH1 catalytic (human) (UniProt P23458)
INSRR (human) = INSRR (human) (UniProt P14616)
MST4 (human) = MST4 (human) (UniProt Q9P289)
TTK (human) = TTK (human) (UniProt P33981)
MAP3K9 (human) = MAP3K9 (human) (UniProt P80192)
PRKD2 (human) = PRKD2 (human) (UniProt Q9BZL6)
SRMS (human) = SRMS (human) (UniProt Q9H3Y6)
DSTYK (human) = DSTYK (human) (UniProt Q6XUX3)
ROCK1 (human) = ROCK1 (human) (UniProt Q13464)
CDK9 CCNK (human) = CDK9 CCNK (human) (UniProt O75909+P50750)
AURKB (human) = AURKB (human) (UniProt Q96GD4)
Chain of AURKB (human) (Q96GD4 whole entry, looked up): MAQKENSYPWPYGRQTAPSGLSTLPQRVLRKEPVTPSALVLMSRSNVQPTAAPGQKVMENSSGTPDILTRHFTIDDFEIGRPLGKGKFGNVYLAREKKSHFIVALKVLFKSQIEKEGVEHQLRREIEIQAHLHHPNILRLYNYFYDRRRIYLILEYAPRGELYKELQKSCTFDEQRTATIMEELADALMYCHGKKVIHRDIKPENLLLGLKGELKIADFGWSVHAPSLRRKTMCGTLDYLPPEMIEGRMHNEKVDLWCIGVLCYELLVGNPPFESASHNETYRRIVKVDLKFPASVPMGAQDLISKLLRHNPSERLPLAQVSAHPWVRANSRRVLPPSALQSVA

Chain of DYRK3 (human) (O43781 whole entry, looked up): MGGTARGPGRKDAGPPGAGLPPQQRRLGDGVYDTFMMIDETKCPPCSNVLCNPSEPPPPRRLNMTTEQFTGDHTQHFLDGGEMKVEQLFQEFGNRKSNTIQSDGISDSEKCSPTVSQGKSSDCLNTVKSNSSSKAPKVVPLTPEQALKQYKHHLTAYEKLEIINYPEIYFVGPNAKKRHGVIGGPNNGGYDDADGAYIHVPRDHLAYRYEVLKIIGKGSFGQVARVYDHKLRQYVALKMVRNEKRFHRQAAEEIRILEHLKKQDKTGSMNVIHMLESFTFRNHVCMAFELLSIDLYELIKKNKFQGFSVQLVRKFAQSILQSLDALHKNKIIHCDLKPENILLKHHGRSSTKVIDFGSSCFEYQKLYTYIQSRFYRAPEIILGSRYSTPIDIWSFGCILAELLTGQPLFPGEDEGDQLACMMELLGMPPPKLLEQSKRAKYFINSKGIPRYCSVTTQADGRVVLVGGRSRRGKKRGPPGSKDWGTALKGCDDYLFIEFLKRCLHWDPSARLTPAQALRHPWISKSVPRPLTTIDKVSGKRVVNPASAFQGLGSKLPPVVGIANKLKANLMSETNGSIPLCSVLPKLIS
Chain of MARK1 (human) (Q9P0L2 whole entry, looked up): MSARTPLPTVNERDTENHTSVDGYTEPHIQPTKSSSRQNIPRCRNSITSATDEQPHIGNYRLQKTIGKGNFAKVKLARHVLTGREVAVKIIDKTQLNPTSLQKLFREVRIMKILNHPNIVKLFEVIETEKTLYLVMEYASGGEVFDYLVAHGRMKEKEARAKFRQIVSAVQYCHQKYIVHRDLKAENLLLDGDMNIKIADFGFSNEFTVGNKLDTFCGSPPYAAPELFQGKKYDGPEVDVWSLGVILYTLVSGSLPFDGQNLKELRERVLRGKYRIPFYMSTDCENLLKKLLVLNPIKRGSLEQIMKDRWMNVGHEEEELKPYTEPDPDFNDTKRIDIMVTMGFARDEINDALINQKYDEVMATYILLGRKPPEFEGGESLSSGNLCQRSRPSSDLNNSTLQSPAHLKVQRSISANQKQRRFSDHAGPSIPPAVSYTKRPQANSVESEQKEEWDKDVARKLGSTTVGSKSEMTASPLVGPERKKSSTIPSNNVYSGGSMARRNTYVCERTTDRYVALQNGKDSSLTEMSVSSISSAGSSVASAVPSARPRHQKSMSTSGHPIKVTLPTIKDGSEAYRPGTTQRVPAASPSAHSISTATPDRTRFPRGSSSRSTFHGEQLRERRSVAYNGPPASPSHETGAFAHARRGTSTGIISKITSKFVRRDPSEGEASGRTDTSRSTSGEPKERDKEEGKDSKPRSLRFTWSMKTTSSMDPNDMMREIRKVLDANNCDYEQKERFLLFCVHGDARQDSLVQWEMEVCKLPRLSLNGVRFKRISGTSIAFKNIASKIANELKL
Chain of MAP3K9 (human) (P80192 whole entry, looked up): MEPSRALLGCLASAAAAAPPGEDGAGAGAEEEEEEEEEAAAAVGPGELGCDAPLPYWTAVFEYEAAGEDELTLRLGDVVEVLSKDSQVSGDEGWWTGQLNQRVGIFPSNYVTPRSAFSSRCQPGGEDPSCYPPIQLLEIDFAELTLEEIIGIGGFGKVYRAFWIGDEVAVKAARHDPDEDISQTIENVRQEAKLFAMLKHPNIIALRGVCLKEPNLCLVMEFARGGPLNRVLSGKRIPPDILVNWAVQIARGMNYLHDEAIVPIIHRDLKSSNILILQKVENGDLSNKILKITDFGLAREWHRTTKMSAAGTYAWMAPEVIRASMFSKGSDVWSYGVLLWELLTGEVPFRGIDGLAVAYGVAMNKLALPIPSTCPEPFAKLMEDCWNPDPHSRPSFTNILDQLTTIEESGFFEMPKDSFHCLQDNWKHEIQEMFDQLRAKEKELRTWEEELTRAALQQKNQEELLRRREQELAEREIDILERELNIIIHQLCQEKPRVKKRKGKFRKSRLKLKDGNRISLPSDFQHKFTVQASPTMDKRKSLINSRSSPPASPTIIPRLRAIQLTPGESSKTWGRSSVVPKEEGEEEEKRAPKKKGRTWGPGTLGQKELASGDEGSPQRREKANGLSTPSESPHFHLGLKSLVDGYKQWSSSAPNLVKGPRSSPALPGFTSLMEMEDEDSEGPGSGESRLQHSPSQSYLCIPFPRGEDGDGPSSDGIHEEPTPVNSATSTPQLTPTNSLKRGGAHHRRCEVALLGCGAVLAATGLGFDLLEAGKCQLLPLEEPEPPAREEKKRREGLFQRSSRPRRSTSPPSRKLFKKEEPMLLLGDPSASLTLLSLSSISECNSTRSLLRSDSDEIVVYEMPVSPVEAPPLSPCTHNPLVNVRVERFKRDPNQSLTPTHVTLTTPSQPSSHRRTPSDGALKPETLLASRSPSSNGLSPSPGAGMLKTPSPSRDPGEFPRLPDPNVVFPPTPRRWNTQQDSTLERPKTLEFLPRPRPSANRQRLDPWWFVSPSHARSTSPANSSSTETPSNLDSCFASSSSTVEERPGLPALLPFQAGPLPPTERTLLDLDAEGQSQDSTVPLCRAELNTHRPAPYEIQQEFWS
Chain of PTK2B (human) (Q14289 whole entry, looked up): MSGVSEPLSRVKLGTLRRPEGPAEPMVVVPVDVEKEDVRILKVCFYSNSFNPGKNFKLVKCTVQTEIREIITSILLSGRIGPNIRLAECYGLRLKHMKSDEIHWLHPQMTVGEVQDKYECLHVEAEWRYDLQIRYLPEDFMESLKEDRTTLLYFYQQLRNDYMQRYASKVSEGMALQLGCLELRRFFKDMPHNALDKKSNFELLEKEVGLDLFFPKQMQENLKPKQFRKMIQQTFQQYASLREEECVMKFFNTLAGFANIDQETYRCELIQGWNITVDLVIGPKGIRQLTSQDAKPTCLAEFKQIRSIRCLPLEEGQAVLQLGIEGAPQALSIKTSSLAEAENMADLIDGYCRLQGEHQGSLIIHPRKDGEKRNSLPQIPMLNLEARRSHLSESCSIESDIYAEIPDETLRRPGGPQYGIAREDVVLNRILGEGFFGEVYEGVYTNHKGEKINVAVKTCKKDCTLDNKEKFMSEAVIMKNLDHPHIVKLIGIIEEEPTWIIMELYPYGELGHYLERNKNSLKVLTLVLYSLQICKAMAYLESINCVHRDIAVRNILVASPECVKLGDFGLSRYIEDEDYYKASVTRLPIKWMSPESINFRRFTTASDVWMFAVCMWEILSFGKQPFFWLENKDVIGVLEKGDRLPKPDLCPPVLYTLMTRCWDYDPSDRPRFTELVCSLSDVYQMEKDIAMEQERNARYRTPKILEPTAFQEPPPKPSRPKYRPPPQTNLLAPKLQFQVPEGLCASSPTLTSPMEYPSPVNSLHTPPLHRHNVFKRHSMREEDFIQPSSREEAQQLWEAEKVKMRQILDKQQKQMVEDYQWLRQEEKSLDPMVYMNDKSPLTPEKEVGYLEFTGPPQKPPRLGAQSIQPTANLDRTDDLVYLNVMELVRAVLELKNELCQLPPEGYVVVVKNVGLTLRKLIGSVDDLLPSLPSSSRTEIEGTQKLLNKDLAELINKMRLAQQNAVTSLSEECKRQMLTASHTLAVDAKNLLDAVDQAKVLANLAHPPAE
Chain of PKN2 (human) (Q16513 whole entry, looked up): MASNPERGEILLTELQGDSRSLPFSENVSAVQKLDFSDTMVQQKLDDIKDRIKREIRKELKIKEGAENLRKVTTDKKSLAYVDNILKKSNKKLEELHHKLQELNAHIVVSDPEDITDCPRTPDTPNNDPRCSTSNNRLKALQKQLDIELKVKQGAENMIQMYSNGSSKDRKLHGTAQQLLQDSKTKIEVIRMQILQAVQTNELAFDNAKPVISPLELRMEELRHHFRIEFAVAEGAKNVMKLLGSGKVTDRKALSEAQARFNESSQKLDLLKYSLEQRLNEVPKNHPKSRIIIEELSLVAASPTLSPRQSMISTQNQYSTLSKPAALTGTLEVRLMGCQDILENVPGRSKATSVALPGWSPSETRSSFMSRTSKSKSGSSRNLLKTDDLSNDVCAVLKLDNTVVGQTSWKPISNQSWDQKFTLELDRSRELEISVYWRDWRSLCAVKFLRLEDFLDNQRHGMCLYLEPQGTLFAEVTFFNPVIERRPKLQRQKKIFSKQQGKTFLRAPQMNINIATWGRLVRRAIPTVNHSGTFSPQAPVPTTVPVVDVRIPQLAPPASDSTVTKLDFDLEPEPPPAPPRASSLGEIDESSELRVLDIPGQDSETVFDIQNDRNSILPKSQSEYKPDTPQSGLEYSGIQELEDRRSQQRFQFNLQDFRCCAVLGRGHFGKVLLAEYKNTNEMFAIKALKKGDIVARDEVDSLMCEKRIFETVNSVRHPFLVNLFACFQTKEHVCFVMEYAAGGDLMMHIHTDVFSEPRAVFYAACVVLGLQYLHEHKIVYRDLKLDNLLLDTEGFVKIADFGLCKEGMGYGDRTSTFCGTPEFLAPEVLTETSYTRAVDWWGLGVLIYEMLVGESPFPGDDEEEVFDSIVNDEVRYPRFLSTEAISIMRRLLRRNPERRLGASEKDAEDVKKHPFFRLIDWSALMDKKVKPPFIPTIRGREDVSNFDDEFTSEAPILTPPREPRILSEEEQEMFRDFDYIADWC

In the case of `O=c1cc(N2CCNCC2)oc2c(-c3ccccc3)cccc12`, the residual activity (CHUK (human)) is reported as 103%, the residual activity (MLTK (human)) is reported as 103% and the residual activity (CSK (human)) is reported as 89.7%. It also gave a residual activity (TAOK3 (human)) of 92.8%, a residual activity (PRKD1 (human)) of 91.9% and a residual activity (DYRK3 (human)) of 97.8%. It also gave a residual activity (PRKACA (human)) of 110%, a residual activity (STK11 (human)) of 101% and a residual activity (CSNK2A1 (human)) of 89.9%. It also gave a residual activity (CDK6 CCND3 (human)) of 93.8%, a residual activity (CLK3 (human)) of 109% and a residual activity (ITK (human)) of 88.1%. For the same molecule, the residual activity (CAMKK2 (human)) was 83.7%, the residual activity (CDK5 CDK5R1 p35 (human)) was 102% and the residual activity (ACVR1B (human)) was 105%. It also gave a residual activity (PKN2 (human)) of 99.5%, a residual activity (SYK (human)) of 104% and a residual activity (PTK2B (human)) of 88.3%. It also gave a residual activity (GRK5 (human)) of 103%, a residual activity (LRRK2 (human)) of 101% and a residual activity (DYRK4 (human)) of 94.7%. The residual activity (RAF1 (human)) was 94.2%, the residual activity (SRPK2 (human)) was 105% and the residual activity (STK39 (human)) was 88.5%. For the same molecule, the residual activity (DAPK3 (human)) was 133%, the residual activity (DYRK1A (human)) was 96.8% and the residual activity (FGFR4 (human)) was 106%. For the same molecule, the residual activity (CSNK1G2 (human)) was 101%, the residual activity (MARK1 (human)) was 99.3% and the residual activity (PHKG1 (human)) was 90.7%. For the same molecule, the residual activity (HCK (human)) was 93.7%, the residual activity [1] was 108% and the residual activity (INSRR (human)) was 89.2%. For the same molecule, the residual activity (MST4 (human)) was 96.3%, the residual activity (TTK (human)) was 91.4% and the residual activity (MAP3K9 (human)) was 101%. For the same molecule, the residual activity (PRKD2 (human)) was 86.7%, the residual activity (SRMS (human)) was 104% and the residual activity (DSTYK (human)) was 92.8%. For the same molecule, the residual activity (ROCK1 (human)) was 104%, the residual activity (CDK9 CCNK (human)) was 94.2% and the residual activity (AURKB (human)) was 97.8%.
`O=C(Nc1ccc(Cl)cc1)c1ccccc1NCc1ccncc1` showed a residual activity (CHUK (human)) of 104%, a residual activity (MLTK (human)) of 86% and a residual activity (CSK (human)) of 101%. For the same molecule, the residual activity (TAOK3 (human)) was 94.1%, the residual activity (PRKD1 (human)) was 93.2% and the residual activity (DYRK3 (human)) was 104%. It also gave a residual activity (PRKACA (human)) of 97.1%, a residual activity (STK11 (human)) of 93.5% and a residual activity (CSNK2A1 (human)) of 91.1%. It also gave a residual activity (CDK6 CCND3 (human)) of 86.5%, a residual activity (CLK3 (human)) of 98.1% and a residual activity (ITK (human)) of 94.1%. It also gave a residual activity (CAMKK2 (human)) of 93.9%, a residual activity (CDK5 CDK5R1 p35 (human)) of 90.4% and a residual activity (ACVR1B (human)) of 95.8%. It also gave a residual activity (PKN2 (human)) of 93.2%, a residual activity (SYK (human)) of 93.6% and a residual activity (PTK2B (human)) of 89.3%. It also gave a residual activity (GRK5 (human)) of 97.3%, a residual activity (LRRK2 (human)) of 98.7% and a residual activity (DYRK4 (human)) of 104%. For the same molecule, the residual activity (RAF1 (human)) was 62.6%, the residual activity (SRPK2 (human)) was 85.1% and the residual activity (STK39 (human)) was 94.7%. For the same molecule, the residual activity (DAPK3 (human)) was 94%, the residual activity (DYRK1A (human)) was 97.1% and the residual activity (FGFR4 (human)) was 84.1%. It also gave a residual activity (CSNK1G2 (human)) of 88.3%, a residual activity (MARK1 (human)) of 94.7% and a residual activity (PHKG1 (human)) of 94.2%. It also gave a residual activity (HCK (human)) of 101%, a residual activity [1] of 91.8% and a residual activity (INSRR (human)) of 96.1%. It also gave a residual activity (MST4 (human)) of 90.9%, a residual activity (TTK (human)) of 102% and a residual activity (MAP3K9 (human)) of 89%. For the same molecule, the residual activity (PRKD2 (human)) was 98%, the residual activity (SRMS (human)) was 97.9% and the residual activity (DSTYK (human)) was 94.7%. It also gave a residual activity (ROCK1 (human)) of 98.4%, a residual activity (CDK9 CCNK (human)) of 95.5% and a residual activity (AURKB (human)) of 77.7%.
`Nc1n[nH]c2nnc(-c3c(-c4ccccc4)nn4ccccc34)cc12` showed a residual activity (CHUK (human)) of 97.5%, a residual activity (MLTK (human)) of 101% and a residual activity (CSK (human)) of 98%. It also gave a residual activity (TAOK3 (human)) of 101%, a residual activity (PRKD1 (human)) of 68.4% and a residual activity (DYRK3 (human)) of 99.8%. It also gave a residual activity (PRKACA (human)) of 97.7%, a residual activity (STK11 (human)) of 91.8% and a residual activity (CSNK2A1 (human)) of 94.8%. For the same molecule, the residual activity (CDK6 CCND3 (human)) was 90.4%, the residual activity (CLK3 (human)) was 94.9% and the residual activity (ITK (human)) was 90.8%. It also gave a residual activity (CAMKK2 (human)) of 101%, a residual activity (CDK5 CDK5R1 p35 (human)) of 105% and a residual activity (ACVR1B (human)) of 107%. The residual activity (PKN2 (human)) was 98.9%, the residual activity (SYK (human)) was 97.4% and the residual activity (PTK2B (human)) was 95.4%. For the same molecule, the residual activity (GRK5 (human)) was 106%, the residual activity (LRRK2 (human)) was 91.8% and the residual activity (DYRK4 (human)) was 95.3%. The residual activity (RAF1 (human)) was 95.6%, the residual activity (SRPK2 (human)) was 73.8% and the residual activity (STK39 (human)) was 89.1%. The residual activity (DAPK3 (human)) was 102%, the residual activity (DYRK1A (human)) was 102% and the residual activity (FGFR4 (human)) was 104%. The residual activity (CSNK1G2 (human)) was 93.7%, the residual activity (MARK1 (human)) was 98% and the residual activity (PHKG1 (human)) was 101%. The residual activity (HCK (human)) was 91.1%, the residual activity [1] was 104% and the residual activity (INSRR (human)) was 95.7%. The residual activity (MST4 (human)) was 75.9%, the residual activity (TTK (human)) was 110% and the residual activity (MAP3K9 (human)) was 99.9%. For the same molecule, the residual activity (PRKD2 (human)) was 54.1%, the residual activity (SRMS (human)) was 93% and the residual activity (DSTYK (human)) was 95.9%. The residual activity (ROCK1 (human)) was 100%, the residual activity (CDK9 CCNK (human)) was 98.5% and the residual activity (AURKB (human)) was 96.8%.
`CC(C)n1cnc2c(Nc3cccc(Cl)c3)nc(NCCO)nc21` was tested, and the residual activity (CHUK (human)) was 96.1%, the residual activity (MLTK (human)) was 96.6% and the residual activity (CSK (human)) was 98.2%. The residual activity (TAOK3 (human)) was 91.8%, the residual activity (PRKD1 (human)) was 99.2% and the residual activity (DYRK3 (human)) was 97.2%. For the same molecule, the residual activity (PRKACA (human)) was 99.5%, the residual activity (STK11 (human)) was 76.1% and the residual activity (CSNK2A1 (human)) was 83.8%. For the same molecule, the residual activity (CDK6 CCND3 (human)) was 89.7%, the residual activity (CLK3 (human)) was 77.8% and the residual activity (ITK (human)) was 96%. The residual activity (CAMKK2 (human)) was 68.2%, the residual activity (CDK5 CDK5R1 p35 (human)) was 22.7% and the residual activity (ACVR1B (human)) was 101%. It also gave a residual activity (PKN2 (human)) of 90.8%, a residual activity (SYK (human)) of 85.1% and a residual activity (PTK2B (human)) of 85%. For the same molecule, the residual activity (GRK5 (human)) was 99.4%, the residual activity (LRRK2 (human)) was 72.8% and the residual activity (DYRK4 (human)) was 91.2%. For the same molecule, the residual activity (RAF1 (human)) was 105%, the residual activity (SRPK2 (human)) was 37.1% and the residual activity (STK39 (human)) was 100%. It also gave a residual activity (DAPK3 (human)) of 102%, a residual activity (DYRK1A (human)) of 88.6% and a residual activity (FGFR4 (human)) of 86.5%. The residual activity (CSNK1G2 (human)) was 20.6%, the residual activity (MARK1 (human)) was 87.6% and the residual activity (PHKG1 (human)) was 75.8%. It also gave a residual activity (HCK (human)) of 78%, a residual activity [1] of 103% and a residual activity (INSRR (human)) of 82.5%. It also gave a residual activity (MST4 (human)) of 87.9%, a residual activity (TTK (human)) of 82.5% and a residual activity (MAP3K9 (human)) of 27.2%. It also gave a residual activity (PRKD2 (human)) of 88.1%, a residual activity (SRMS (human)) of 85.1% and a residual activity (DSTYK (human)) of 97%. For the same molecule, the residual activity (ROCK1 (human)) was 101%, the residual activity (CDK9 CCNK (human)) was 86.9% and the residual activity (AURKB (human)) was 106%.
